{
  "source": "ChEMBL document CHEMBL2074376",
  "about": "“Differential regulation of mdr genes in response to 2-acetylaminofluorene treatment in cultured rat and human hepatocytes” (Carcinogenesis, 1996)",
  "key": {"[1]": {"molecular_target": "ATP-dependent translocase ABCB1 (Rattus norvegicus, UniProt P43245)", "sequence (P43245 whole entry)": "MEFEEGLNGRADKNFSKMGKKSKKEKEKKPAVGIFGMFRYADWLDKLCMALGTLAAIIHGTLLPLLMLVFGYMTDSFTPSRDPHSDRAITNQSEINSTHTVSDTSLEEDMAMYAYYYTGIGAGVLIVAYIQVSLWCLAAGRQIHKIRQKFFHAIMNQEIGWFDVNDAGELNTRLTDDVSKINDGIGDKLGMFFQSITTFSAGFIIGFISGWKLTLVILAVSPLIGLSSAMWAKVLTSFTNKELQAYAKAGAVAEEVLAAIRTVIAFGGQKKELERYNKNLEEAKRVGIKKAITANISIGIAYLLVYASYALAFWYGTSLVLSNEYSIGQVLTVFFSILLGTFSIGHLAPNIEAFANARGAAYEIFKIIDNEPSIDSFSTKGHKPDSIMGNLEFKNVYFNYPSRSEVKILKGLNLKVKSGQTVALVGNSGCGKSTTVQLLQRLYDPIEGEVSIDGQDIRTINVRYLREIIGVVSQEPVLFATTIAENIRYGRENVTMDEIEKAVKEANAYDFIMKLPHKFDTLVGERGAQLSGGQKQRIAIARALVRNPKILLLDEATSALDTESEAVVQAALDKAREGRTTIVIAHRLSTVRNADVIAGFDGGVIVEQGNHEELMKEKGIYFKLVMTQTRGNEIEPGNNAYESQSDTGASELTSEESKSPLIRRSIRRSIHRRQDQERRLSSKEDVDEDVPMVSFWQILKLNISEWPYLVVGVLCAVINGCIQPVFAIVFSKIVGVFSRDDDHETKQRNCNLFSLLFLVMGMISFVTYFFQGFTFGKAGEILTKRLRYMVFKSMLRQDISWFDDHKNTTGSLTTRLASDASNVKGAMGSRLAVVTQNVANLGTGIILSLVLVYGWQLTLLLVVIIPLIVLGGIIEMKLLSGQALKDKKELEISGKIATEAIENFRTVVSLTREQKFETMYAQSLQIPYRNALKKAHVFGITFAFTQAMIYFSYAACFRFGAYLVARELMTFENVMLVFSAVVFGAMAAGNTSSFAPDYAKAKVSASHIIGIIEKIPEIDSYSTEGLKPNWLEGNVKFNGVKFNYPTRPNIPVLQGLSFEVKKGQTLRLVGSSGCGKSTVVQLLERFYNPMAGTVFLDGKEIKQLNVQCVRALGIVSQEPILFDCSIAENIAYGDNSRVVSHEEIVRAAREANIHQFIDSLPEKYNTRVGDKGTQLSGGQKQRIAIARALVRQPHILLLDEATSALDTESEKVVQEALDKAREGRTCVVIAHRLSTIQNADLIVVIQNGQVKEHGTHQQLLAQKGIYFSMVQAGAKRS", "assay": "(§1) TP_TRANSPORTER: Northern blot from primary hepatocytes", "type": "functional, cell-based, Hepatocyte"}, "[2]": {"molecular_target": "ATP-dependent translocase ABCB1 (Homo sapiens, UniProt P08183)", "sequence (P08183 whole entry)": "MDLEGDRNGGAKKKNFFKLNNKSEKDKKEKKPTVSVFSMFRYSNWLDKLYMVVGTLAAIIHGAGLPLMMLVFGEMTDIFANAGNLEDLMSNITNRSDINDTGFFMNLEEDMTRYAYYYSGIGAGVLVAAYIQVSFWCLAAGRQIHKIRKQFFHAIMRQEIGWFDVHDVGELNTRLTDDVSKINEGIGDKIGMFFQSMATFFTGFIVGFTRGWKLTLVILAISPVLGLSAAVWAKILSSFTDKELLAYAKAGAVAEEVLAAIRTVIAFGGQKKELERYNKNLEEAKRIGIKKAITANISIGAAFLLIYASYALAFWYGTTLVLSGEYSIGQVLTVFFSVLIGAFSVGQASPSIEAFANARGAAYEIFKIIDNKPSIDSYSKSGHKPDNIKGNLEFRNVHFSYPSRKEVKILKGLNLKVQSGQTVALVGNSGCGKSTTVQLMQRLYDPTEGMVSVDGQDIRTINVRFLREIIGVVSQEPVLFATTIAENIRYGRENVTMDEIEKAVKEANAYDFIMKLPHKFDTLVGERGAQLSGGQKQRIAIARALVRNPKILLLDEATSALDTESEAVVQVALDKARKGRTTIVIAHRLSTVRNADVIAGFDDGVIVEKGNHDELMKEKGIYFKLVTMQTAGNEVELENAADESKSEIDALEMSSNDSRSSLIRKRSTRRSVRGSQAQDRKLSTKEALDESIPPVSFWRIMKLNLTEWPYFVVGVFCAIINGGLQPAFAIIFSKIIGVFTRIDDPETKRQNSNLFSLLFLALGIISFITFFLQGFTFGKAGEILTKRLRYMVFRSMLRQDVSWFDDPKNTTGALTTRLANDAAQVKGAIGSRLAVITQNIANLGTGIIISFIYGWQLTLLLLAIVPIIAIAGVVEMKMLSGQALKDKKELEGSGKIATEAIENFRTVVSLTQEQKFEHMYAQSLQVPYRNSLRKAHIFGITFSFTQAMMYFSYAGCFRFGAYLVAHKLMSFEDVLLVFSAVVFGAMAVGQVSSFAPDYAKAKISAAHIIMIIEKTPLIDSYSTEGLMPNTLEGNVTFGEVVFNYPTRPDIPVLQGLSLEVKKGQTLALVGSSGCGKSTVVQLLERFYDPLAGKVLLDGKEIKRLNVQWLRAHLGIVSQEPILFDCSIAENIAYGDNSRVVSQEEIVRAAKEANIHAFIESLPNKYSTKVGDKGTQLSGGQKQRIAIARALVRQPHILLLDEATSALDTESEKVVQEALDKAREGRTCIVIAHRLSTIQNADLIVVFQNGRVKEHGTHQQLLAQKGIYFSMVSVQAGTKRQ", "assay": "as §1", "type": "functional, cell-based, Hepatocyte"}},
  "data": [
    {"smiles": "CC(=O)Nc1ccc2c(c1)Cc1ccccc1-2", "note": "[2-ACETYLAMINOFLUORENE]", "values": [
      {"measurement": "Activity", "setting": "[1]", "result": "inducer [+]"},
      {"measurement": "Activity", "setting": "[2]", "result": "is not an inducer [-]"}
    ]}
  ]
}
